From patent publication US10414763B2 (CANCER RESEARCH TECHNOLOGY LIMITED, priority 2014, dated 2019)

Target: T1, full-length human PKCι (Homo sapiens, UniProt P41743)
T1 construct: Recombinant, full-length human PKCι expressed in Sf21 insect cells is also commercially available; purchased EMD Millipore; host or cells: Sf21 insect cells (baculovirus)
T1 sequence (P41743 1-596): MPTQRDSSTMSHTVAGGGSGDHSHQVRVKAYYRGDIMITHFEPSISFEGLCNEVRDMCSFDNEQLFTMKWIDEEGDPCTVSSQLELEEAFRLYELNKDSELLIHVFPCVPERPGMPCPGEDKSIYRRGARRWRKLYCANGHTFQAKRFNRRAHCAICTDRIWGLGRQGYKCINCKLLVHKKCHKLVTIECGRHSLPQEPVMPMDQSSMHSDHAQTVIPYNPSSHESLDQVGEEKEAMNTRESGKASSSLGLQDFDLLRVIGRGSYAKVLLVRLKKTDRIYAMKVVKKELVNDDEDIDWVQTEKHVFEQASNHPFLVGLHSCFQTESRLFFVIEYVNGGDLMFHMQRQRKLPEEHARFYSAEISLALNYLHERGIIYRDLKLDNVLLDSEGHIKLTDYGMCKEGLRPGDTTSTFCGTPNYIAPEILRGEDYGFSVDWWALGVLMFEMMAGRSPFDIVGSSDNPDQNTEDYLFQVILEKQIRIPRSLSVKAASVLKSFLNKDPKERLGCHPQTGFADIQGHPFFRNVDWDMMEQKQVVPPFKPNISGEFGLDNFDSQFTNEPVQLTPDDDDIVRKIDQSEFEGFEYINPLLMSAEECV
Assay: PKCι IC50 IMAP fluorescence polarisation assay, full-length enzyme, 150 μM ATP
Assay type: biochemical
Conditions: read-out: IC50 in IMAP assay against full length PKCi at 150 μM ATP
Outline: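 IMAP fluorescence polarisation kinase assay: 15 pM baculovirus-expressed human PKCiota with 100 nM FAM-pseudosubstrate peptide and 150 μM ATP, 1 h at 25 °C. IMAP detection reagent then 2 h at 25 °C before FP measurement. Inhibition referenced to no-compound and no-enzyme controls for IC50 fitting.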

| Compound | IC50 [nM] |
| --- | --- |
| C[C@@H]1CNCC[C@@H]1Nc1nc(-c2ccnc(Nc3nc(F)cc(F)c3F)c2)nc2cncc(C3CCC3)c12 (racemic) [Example 295, {5-Cyclobutyl-2-[2-(3,4,6-trifluoro-pyridin-2-ylamino)-pyridin-4-yl]-pyrido[3,4-d]pyrimidin-4-yl}-(rac-(3R,4S)-3-methyl-piperidin-4-yl)-amine] | < 100 |
| CC1(C)CNCCC1Nc1nc(-c2ccnc(Nc3ccccc3)c2)nc2cncc(C3CC3)c12 (stereo not drawn) [Example 47, [5-Cyclopropyl-2-(2-phenylamino-pyridin-4-yl)-pyrido[3,4-d]pyrimidin-4-yl]-(3,3-dimethyl-piperidin-4-yl)-amine] | < 100 |
| C[C@@H]1CNCC[C@H]1Nc1nc(-c2ccnc(Nc3nc(F)cc(F)c3F)c2)nc2cncc(C3CC3)c12 (racemic) [Example 304, {5-Cyclopropyl-2-[2-(3,4,6-trifluoro-pyridin-2-ylamino)-pyridin-4-yl]-pyrido[3,4-d]pyrimidin-4-yl}-(rac-(3R,4R)-3-methyl-piperidin-4-yl)-amine] | < 100 |
| O[C@H]1CNCC[C@H]1Nc1nc(-c2ccnc(Nc3ncc(F)cc3F)c2)nc2cncc(C3CCC3)c12 (racemic) [Example 293, rac-(3S,4R)-4-{5-Cyclobutyl-2-[2-(3,5-difluoro-pyridin-2-ylamino)-pyridin-4-yl]-pyrido[3,4-d]pyrimidin-4-ylamino}-piperidin-3-ol] | < 100 |
| c1ccc(Nc2cc(-c3nc(N4CCC5NCCC54)c4c(C5CCC5)cncc4n3)ccn2)cc1 (stereo not drawn) [Example 102, {4-[5-Cyclobutyl-4-(hexahydro-pyrrolo[3,2-b]pyrrol-1-yl)-pyrido[3,4-d]pyrimidin-2-yl]-pyndin-2-yl}-phenyl-amine] | < 100 |
| CN(c1nc(-c2ccnc3[nH]c(C(=O)NC4CCCCC4)cc23)nc2cncc(C3CC3)c12)C1CCNCC1(C)C (stereo not drawn) [Example 66, 4-{5-Cyclopropyl-4-[(3,3-dimethyl-piperidin-4-yl)-methyl-amino]-pyrido[3,4-d]pyrimidin-2-yl}-1H-pyrrolo[2,3-b]pyridine-2-carboxylic acid cyclohexylamide] | < 100 |
| O[C@]12CCN(c3nc(-c4ccnc(Nc5nc6ccccn6n5)c4)nc4cncc(C5CC5)c34)[C@H]1CCNC2 (racemic) [Example 151, (±)-(3aS,7aS)-1-{5-Cyclopropyl-2-[2-([1,2,4]triazolo[1,5-a]pyridin-2-ylamino)-pyridin-4-yl]-pyrido[3,4-d]pyrimidin-4-yl}-octahydro-pyrrolo [3,2-c]pyridin-3a-ol] | < 100 |
| Cc1nc(Nc2cc(-c3nc(N[C@@H]4CCNC[C@H]4C)c4c(C5CCC5)cncc4n3)ccn2)ccc1C#N (racemic) [Example 312, 6-{4-[5-Cyclobutyl-4-(rac-(3R,4R)-3-methyl-piperidin-4-ylamino)-pyrido[3,4-d]pyrimidin-2-yl]-pyridin-2-ylamino}-2-methyl-nicotinonitrile] | < 100 |
| CN(c1nc(-c2ccnc3[nH]c(-c4ccc(Cl)cc4Cl)cc23)nc2cncc(C3CC3)c12)C1CCNCC1(C)C (stereo not drawn) [Example 24, {5-Cyclopropyl-2-[2-(2,4-dichloro-phenyl)-1H-pyrrolo[2,3-b]pyridin-4-yl]-pyrido[3,4-d]pyrimidin-4-yl}-(3,3-dimethyl-piperidin-4-yl)-methyl-amine] | < 100 |
| CN(c1nc(-c2ccnc(Nc3ccccc3)c2)nc2cncc(C3CCC3)c12)C1CCNCC1(C)C (stereo not drawn) [Example 110, [5-Cyclobutyl-2-(2-phenylamino-pyridin-4-yl)-pyrido[3,4-d]pyrimidin-4-yl]-(3,3-dimethyl-piperidin-4-yl)-methyl-amine] | < 100 |
| CN(c1nc(-c2ccnc3[nH]c4ccccc4c23)nc2cncc(C3CC3)c12)[C@@H]1CCNC[C@@]1(C)O (racemic) [Example 114, (±)-(3,4-trans)-4-{[5-Cyclopropyl-2-(9H-pyrido[2,3-b]indol-4-yl)-pyrido[3,4-d]pyrimidin-4-yl]-methyl-amino}-3-methyl-piperidin-3-ol] | < 100 |
| CC1(C)CNCC[C@@H]1Nc1nc(-c2ccnc3[nH]c(-c4cncc(F)c4)cc23)nc2cncc(C3CC3)c12 [Example 365, {5-Cyclopropyl-2-[2-(5-fluoro-pyridin-3-yl)-1H-pyrrolo[2,3-b]pyridin-4-yl]-pyrido[3,4-d]pyrimidin-4-yl}-((S)-3,3-dimethyl-piperidin-4-yl)-amine] | < 100 |
| CC1(C)CNCCC1Nc1nc(-c2ccnc(Nc3ccc(F)cn3)c2)nc2cncc(C3CC3)c12 (stereo not drawn) [Example 48, {5-Cyclopropyl-2-[2-(5-fluoro-pyridin-2-ylamino)-pyridin-4-yl]-pyrido[3,4-d]pyrimidin-4-yl}-(3,3-dimethyl-piperidin-4-yl)-amine] | < 100 |
| CN(c1nc(-c2ccnc3[nH]c(-c4ccccc4F)cc23)nc2cncc(C3CC3)c12)[C@H]1CCNCC1(C)C [Example 396, {5-Cyclopropyl-2-[2-(2-fluoro-phenyl)-1H-pyrrolo[2,3-b]pyridin-4-yl]-pyrido[3,4-d]pyrimidin-4-yl}-((S)-3,3-dimethyl-piperidin-4-yl)-methyl-amine] | < 100 |
| c1ccc(Cn2cnc(Nc3cc(-c4nc(N5CCC6CNCCC65)c5c(C6CC6)cncc5n4)ccn3)n2)cc1 (stereo not drawn) [Example 239, (1-Benzyl-1H-1,2,4-triazol-3-yl)-{4-[5-cyclopropyl-4-(octahydro-pyrrolo[3,2-c]pyridin-1-yl)-pyrido[3,4-d]pyrimidin-2-yl]-pyridin-2-yl}-amine] | < 100 |
| CC1CNCCC1Nc1nc(-c2ccnc(Nc3nc(F)c(F)cc3F)c2)nc2cncc(C3CCC3)c12 (stereo not drawn) [Example 126, {5-Cyclobutyl-2-[2-(3,5,6-trifluoro-pyridin-2-ylamino)-pyridin-4-yl]-pyrido[3,4-d]pyrimidin-4-yl}-(3-methyl-piperidin-4-yl)-amine] | < 100 |
| COc1cncc2nc(-c3ccnc(Nc4ncccc4F)c3)nc(N[C@H]3CCNCC3(C)C)c12 [Example 269, N-[(4S)-3,3-dimethyl-4-piperidyl]-2-[2-[(3-fluoro-2-pyridyl)amino]-4-pyridyl]-5-methoxy-pyrido[3,4-d]pyrimidin-4-amine] | 100 to 1000 |
| COc1nc(-c2cc3c(-c4nc(N5CCC6CNCCC65)c5c(C6CC6)cncc5n4)ccnc3[nH]2)cs1 (stereo not drawn) [Example 118, 5-Cyclopropyl-2-[2-(2-methoxy-thiazol-4-yl)-1H-pyrrolo[2,3-b]pyridin-4-yl]-4-(octahydro-pyrrolo[3,2-c]pyridin-1-yl)-pyrido[3,4-d]pyrimidine] | < 100 |
| CCSc1cc2c(-c3nc(N4CCNCC4)c4c(C5CC5)cncc4n3)ccnc2[nH]1 [Example 134, 5-Cyclopropyl-2-(2-ethylsulfanyl-1H-pyrrolo[2,3-b]pyridin-4-yl)-4-piperazin-1-yl-pyrido[3,4-d]pyrimidine] | < 100 |

The remaining lines, values ahead:

| IC50 [nM] | Compound |
| --- | --- |
| < 100 | c1ccc2c(c1)[nH]c1nccc(-c3nc(N[C@@H]4CCCNCC4)c4c(C5CCC5)cncc4n3)c12 [Example 141, (R)-Azepan-4-yl-[5-cyclobutyl-2-(9H-pyrido[2,3-b]indol-4-yl)-pyrido[3,4-d]pyrimidin-4-yl]-amine] |
| 100 to 1000 | NC(=O)C1CC(Nc2nc(-c3ccnc4[nH]c5ccccc5c34)nc3cncc(C4CCC4)c23)CC1N (stereo not drawn) [Example 377, 2-amino-4-[[5-cyclobutyl-2-(9H-pyrido[2,3-b]indol-4-yl)pyrido[3,4-d]pyrimidin-4-yl]amino]cyclopentane carboxamide] |
| < 100 | N[C@H]1C[C@@H](Nc2nc(-c3ccnc4[nH]c5ccccc5c34)nc3cncc(C4CCC4)c23)C1 [Example 121, cis-[5-Cyclobutyl-2-(9H-pyrido[2,3-b]indol-4-yl)-pyrido[3,4-d]pyrimidin-4-yl]-cyclobutane-1,3-diamine] |
| < 100 | CC1(C)CNCC[C@@H]1Nc1nc(-c2ccnc3[nH]c4ccccc4c23)nc2cncc(C(F)(F)F)c12 [Example 217, ((S)-3,3-Dimethyl-piperidin-4-yl)-[2-(9H-pyrido[2,3-b]indol-4-yl)-5-trifluoromethyl-pyrido[3,4-d]pyrimidin-4-yl]-amine] |
| < 100 | C[C@H]1CNCC[C@@H]1Nc1nc(-c2ccnc3[nH]c(C(F)(F)F)cc23)nc2cncc(C3CCC3)c12 (racemic) [Example 262] |
| < 100 | c1ccc2c(c1)[nH]c1nccc(-c3nc(N4CCC5(CCCNC5)C4)c4c(C5CCC5)cncc4n3)c12 (stereo not drawn) [Example 250, 4-[5-Cyclobutyl-4-(2,7-diaza-spiro[4.5]dec-2-yl)-pyrido[3,4-d]pyrimidin-2-yl]-9H-pyrido[2,3-b]indole] |
| < 100 | c1ccc(Nc2cc(-c3nc(N[C@H]4[C@@H]5CNC[C@@H]54)c4c(C5CCC5)cncc4n3)ccn2)cc1 [Example 111, (1S,6S)-3-Aza-bicyclo[3.1.0]hex-6-yl-[(R)-5-cyclobutyl-2-(2-phenylamino-pyridin-4-yl)-pyrido[3,4-d]pyrimidin-4-yl]-amine] |
| 100 to 1000 | CC1(C)CNCC[C@@H]1Nc1nc(-c2ccnc3[nH]c4ccccc4c23)nc2cncc(C3CCC3)c12 [Example 200] |
